Measured values reported in ChEMBL document CHEMBL3885881, “DrugMatrix”.

Species: Rattus norvegicus
Assay: DrugMatrix - Regimen: Daily Repeat
Format: toxicity, organism-based, Sprague-Dawley
Set-up: regimen Daily Repeat, gender Male, age 6-8 weeks
Conditions: in vivo, po, route oral GAVAGE, vehicle .5 % CMC; for ABSOLUTE BASOPHIL / ABSOLUTE EOSINOPHIL / ABSOLUTE LYMPHOCYTE / ABSOLUTE MONOCYTE / ABSOLUTE SEGMENTED NEUTROPHIL / BASOPHIL / EOSINOPHIL / ERYTHROCYTE COUNT / HEMATOCRIT / HEMOGLOBIN / LEUKOCYTE COUNT / LYMPHOCYTE / MEAN CORPUSCULAR HEMOGLOBIN / MEAN CORPUSCULAR HEMOGLOBIN CONCENTRATION / MEAN CORPUSCULAR VOLUME / MONOCYTE / NEUTROPHIL / NUCLEATED RED BLOOD CELLS / PLATELET COUNT: tissue Blood; for ALANINE AMINOTRANSFERASE / ALBUMIN / ALKALINE PHOSPHATASE / ASPARTATE AMINOTRANSFERASE / BLOOD UREA NITROGEN / CARBON DIOXIDE / CHLORIDE / CHOLESTEROL / CREATINE PHOSPHOKINASE / CREATININE / GLUCOSE / LACTATE DEHYDROGENASE / LIPASE / PHOSPHORUS / POTASSIUM / SODIUM / TOTAL BILIRUBIN / TOTAL PROTEIN / URIC ACID: tissue Plasma
[1] = 10 mg/kg, 72 h, dose level Low, time 3 day
[2] = 10 mg/kg, 120 h, dose level Low, time 5 day
[3] = 1500 mg/kg, 72 h, dose level High, time 3 day
[4] = 1500 mg/kg, 120 h, dose level High, time 5 day

Cc1ccc(S(=O)(=O)NC(=O)NN2CC3CCCC3C2)cc1 (configuration not stated) [GLICLAZIDE]
ABSOLUTE BASOPHIL [1]: 0 CELLS/uL
ABSOLUTE EOSINOPHIL [1]: 0 CELLS/uL
ABSOLUTE LYMPHOCYTE [1]: 14055.67 CELLS/uL
ABSOLUTE MONOCYTE [1]: 174.33 CELLS/uL
ABSOLUTE SEGMENTED NEUTROPHIL [1]: 3203.33 CELLS/uL
BASOPHIL [1]: 0%
EOSINOPHIL [1]: 0%
ERYTHROCYTE COUNT [1]: 5.24 x10E6/uL
HEMATOCRIT [1]: 35.87%
HEMOGLOBIN [1]: 13.1 G/DL
LEUKOCYTE COUNT [1]: 17.43 x10E3/uL
LYMPHOCYTE [1]: 80.33%
MEAN CORPUSCULAR HEMOGLOBIN [1]: 25.37 pg
MEAN CORPUSCULAR HEMOGLOBIN CONCENTRATION [1]: 36.67 G/DL
MEAN CORPUSCULAR VOLUME [1]: 70.43 fL
MONOCYTE [1]: 1%
NEUTROPHIL [1]: 18.67%
NUCLEATED RED BLOOD CELLS [1]: 7 /100WBC
PLATELET COUNT [1]: 1164.33 x10E3/uL
ALANINE AMINOTRANSFERASE [1]: 49.67 u/L
ALBUMIN [1]: 4.1 G/DL
ALKALINE PHOSPHATASE [1]: 346.33 u/L
ASPARTATE AMINOTRANSFERASE [1]: 96.67 u/L
BLOOD UREA NITROGEN [1]: 16 mg/dL
CARBON DIOXIDE [1]: 25 mmol/L
CHLORIDE [1]: 100.33 MEQ/L
CHOLESTEROL [1]: 66.67 mg/dL
CREATINE PHOSPHOKINASE [1]: 653 u/L
CREATININE [1]: 0.19 mg/dL
GLUCOSE [1]: 179.33 mg/dL
LACTATE DEHYDROGENASE [1]: 157.33 u/L
LIPASE [1]: 10 u/L
PHOSPHORUS [1]: 13.27 mg/dL
POTASSIUM [1]: 6.4 MEQ/L
SODIUM [1]: 142.3 MEQ/L
TOTAL BILIRUBIN [1]: 0.27 mg/dL
TOTAL PROTEIN [1]: 5.77 G/DL
URIC ACID [1]: 2.23 mg/dL
ABSOLUTE BASOPHIL [2]: 0 CELLS/uL
ABSOLUTE EOSINOPHIL [2]: 0 CELLS/uL
ABSOLUTE LYMPHOCYTE [2]: 12400.33 CELLS/uL
ABSOLUTE MONOCYTE [2]: 0 CELLS/uL
ABSOLUTE SEGMENTED NEUTROPHIL [2]: 2133 CELLS/uL
BASOPHIL [2]: 0%
EOSINOPHIL [2]: 0%
ERYTHROCYTE COUNT [2]: 5.84 x10E6/uL
HEMATOCRIT [2]: 35.33%
HEMOGLOBIN [2]: 14.07 G/DL
LEUKOCYTE COUNT [2]: 14.53 x10E3/uL
LYMPHOCYTE [2]: 86%
MEAN CORPUSCULAR HEMOGLOBIN [2]: 24.13 pg
MEAN CORPUSCULAR HEMOGLOBIN CONCENTRATION [2]: 39.8 G/DL
MEAN CORPUSCULAR VOLUME [2]: 60.6 fL
MONOCYTE [2]: 0%
NEUTROPHIL [2]: 14%
NUCLEATED RED BLOOD CELLS [2]: 0 /100WBC
PLATELET COUNT [2]: 1074.33 x10E3/uL
ALANINE AMINOTRANSFERASE [2]: 49 u/L
ALBUMIN [2]: 4.23 G/DL
ALKALINE PHOSPHATASE [2]: 441 u/L
ASPARTATE AMINOTRANSFERASE [2]: 113.67 u/L
BLOOD UREA NITROGEN [2]: 15.33 mg/dL
CARBON DIOXIDE [2]: 25 mmol/L
CHLORIDE [2]: 101.33 MEQ/L
CHOLESTEROL [2]: 63.33 mg/dL
CREATINE PHOSPHOKINASE [2]: 738.33 u/L
CREATININE [2]: 0.19 mg/dL
GLUCOSE [2]: 153.67 mg/dL
LACTATE DEHYDROGENASE [2]: 958 u/L
LIPASE [2]: 9 u/L
PHOSPHORUS [2]: 11.2 mg/dL
POTASSIUM [2]: 6.16 MEQ/L
SODIUM [2]: 141.57 MEQ/L
TOTAL BILIRUBIN [2]: 0.2 mg/dL
TOTAL PROTEIN [2]: 5.97 G/DL
URIC ACID [2]: 1.43 mg/dL
ABSOLUTE BASOPHIL [3]: 0 CELLS/uL
ABSOLUTE EOSINOPHIL [3]: 66 CELLS/uL
ABSOLUTE LYMPHOCYTE [3]: 14884.33 CELLS/uL
ABSOLUTE MONOCYTE [3]: 365.67 CELLS/uL
ABSOLUTE SEGMENTED NEUTROPHIL [3]: 2117.33 CELLS/uL
BASOPHIL [3]: 0%
EOSINOPHIL [3]: 0.33%
ERYTHROCYTE COUNT [3]: 6.45 x10E6/uL
HEMATOCRIT [3]: 39.57%
HEMOGLOBIN [3]: 15.77 G/DL
LEUKOCYTE COUNT [3]: 17.43 x10E3/uL
LYMPHOCYTE [3]: 85.33%
MEAN CORPUSCULAR HEMOGLOBIN [3]: 24.4 pg
MEAN CORPUSCULAR HEMOGLOBIN CONCENTRATION [3]: 39.83 G/DL
MEAN CORPUSCULAR VOLUME [3]: 61.27 fL
MONOCYTE [3]: 2%
NEUTROPHIL [3]: 12.33%
NUCLEATED RED BLOOD CELLS [3]: 0 /100WBC
PLATELET COUNT [3]: 1204.33 x10E3/uL
ALANINE AMINOTRANSFERASE [3]: 29 u/L
ALBUMIN [3]: 4.03 G/DL
ALKALINE PHOSPHATASE [3]: 337.33 u/L
ASPARTATE AMINOTRANSFERASE [3]: 85.67 u/L
BLOOD UREA NITROGEN [3]: 17.33 mg/dL
CARBON DIOXIDE [3]: 26.33 mmol/L
CHLORIDE [3]: 100.67 MEQ/L
CHOLESTEROL [3]: 39.33 mg/dL
CREATINE PHOSPHOKINASE [3]: 319 u/L
CREATININE [3]: 0.14 mg/dL
GLUCOSE [3]: 104.67 mg/dL
LACTATE DEHYDROGENASE [3]: 118.33 u/L
LIPASE [3]: 8.67 u/L
PHOSPHORUS [3]: 11.03 mg/dL
POTASSIUM [3]: 6.27 MEQ/L
SODIUM [3]: 141.67 MEQ/L
TOTAL BILIRUBIN [3]: 0.13 mg/dL
TOTAL PROTEIN [3]: 5.43 G/DL
URIC ACID [3]: 2.57 mg/dL
ABSOLUTE BASOPHIL [4]: 0 CELLS/uL
ABSOLUTE EOSINOPHIL [4]: 0 CELLS/uL
ABSOLUTE LYMPHOCYTE [4]: 11101.33 CELLS/uL
ABSOLUTE MONOCYTE [4]: 80.33 CELLS/uL
ABSOLUTE SEGMENTED NEUTROPHIL [4]: 1151.67 CELLS/uL
BASOPHIL [4]: 0%
EOSINOPHIL [4]: 0%
ERYTHROCYTE COUNT [4]: 6.29 x10E6/uL
HEMATOCRIT [4]: 37%
HEMOGLOBIN [4]: 14.7 G/DL
LEUKOCYTE COUNT [4]: 12.33 x10E3/uL
LYMPHOCYTE [4]: 90%
MEAN CORPUSCULAR HEMOGLOBIN [4]: 23.4 pg
MEAN CORPUSCULAR HEMOGLOBIN CONCENTRATION [4]: 39.8 G/DL
MEAN CORPUSCULAR VOLUME [4]: 58.83 fL
MONOCYTE [4]: 0.67%
NEUTROPHIL [4]: 9.33%
NUCLEATED RED BLOOD CELLS [4]: 0 /100WBC
PLATELET COUNT [4]: 1131.67 x10E3/uL
ALANINE AMINOTRANSFERASE [4]: 46 u/L
ALBUMIN [4]: 4.17 G/DL
ALKALINE PHOSPHATASE [4]: 318 u/L
ASPARTATE AMINOTRANSFERASE [4]: 93 u/L
BLOOD UREA NITROGEN [4]: 21.33 mg/dL
CARBON DIOXIDE [4]: 23.33 mmol/L
CHLORIDE [4]: 103.67 MEQ/L
CHOLESTEROL [4]: 44.67 mg/dL
CREATINE PHOSPHOKINASE [4]: 248.33 u/L
CREATININE [4]: 0.18 mg/dL
GLUCOSE [4]: 101.67 mg/dL
LACTATE DEHYDROGENASE [4]: 168.33 u/L
LIPASE [4]: 10 u/L
PHOSPHORUS [4]: 10.43 mg/dL
POTASSIUM [4]: 6.21 MEQ/L
SODIUM [4]: 144.47 MEQ/L
TOTAL BILIRUBIN [4]: 0.1 mg/dL
TOTAL PROTEIN [4]: 5.7 G/DL
URIC ACID [4]: 1.7 mg/dL
